The assay has as its system P388 leukemia ip, CD2F1 mice, survival T/C. The assay is described as follows: NCI In Vivo Anticancer Drug Screen. Data for tumor model P388 Leukemia (intraperitoneal) in CD2F1 (CDF1) mice. Particulars: endpoint: median survival time, higher = longer survival. A digest of the protocol:
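Mice carrying the transplanted tumor received test compound or vehicle. Survival was recorded in each group, and the value is the treated-group measurement divided by that of the vehicle-treated control group.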

Setting [1] is: dose: 12.5 mg/kg/injection, schedule: Q01DX009 (ip), vehicle: other.
The mark [2] stands for this setting: dose: 100.0 mg/kg/injection, schedule: Q01DX009 (ip), vehicle: other.
Setting [3] is: dose: 100.0 mg/kg/injection, schedule: Q01DX009 (ip), vehicle: saline.
The mark [4] stands for this setting: dose: 200.0 mg/kg/injection, schedule: Q01DX009 (ip), vehicle: saline.
Where [5] appears, read: dose: 12.5 mg/kg/injection, schedule: Q01DX009 (ip), vehicle: saline with Tween-80.
The mark [6] stands for this setting: dose: 25.0 mg/kg/injection, schedule: Q01DX009 (ip), vehicle: saline with Tween-80.
The mark [7] stands for this setting: dose: 50.0 mg/kg/injection, schedule: Q01DX009 (ip), vehicle: saline with Tween-80.
Setting [8] is: dose: 60.0 mg/kg/injection, schedule: Q01DX005 (ip), vehicle: Klucel (hydroxypropylcellulose) (HPC).
The mark [9] stands for this setting: dose: 120.0 mg/kg/injection, schedule: Q01DX005 (ip), vehicle: Klucel (hydroxypropylcellulose) (HPC).
Where [10] appears, read: dose: 240.0 mg/kg/injection, schedule: Q01DX005 (ip), vehicle: Klucel (hydroxypropylcellulose) (HPC).
The mark [11] stands for this setting: dose: 60.0 mg/kg/injection, schedule: Q01DX005 (ip), vehicle: saline with Tween-80.

Consider 19 molecules from PubChem BioAssay AID330 (DTP/NCI, 2004).

Several values for one entry are separate records, joined by “and”; a condition that tells them apart may be missing. Equal values may be shown once. Toxic doses and inconclusive results are not listed.

Take `CCCCCCCCCCSCC(CO)NC(=O)/C=C/c1c(C)[nH]c(=O)[nH]c1=O` (configuration not stated): the T/C was 104 % of control (dose: 3.13 mg/kg/injection, schedule: Q01DX009 (ip), vehicle: distilled water + Tween-80); 112 % of control (dose: 6.25 mg/kg/injection, schedule: Q01DX009 (ip), vehicle: distilled water + Tween-80); 114 % of control and 117 % of control (dose: 6.25 mg/kg/injection, schedule: Q01DX009 (ip), vehicle: other); 110 % of control (dose: 12.5 mg/kg/injection, schedule: Q01DX009 (ip), vehicle: distilled water + Tween-80); 114 % of control and 115 % of control under setting [1]; 99 % of control and 110 % of control (dose: 25.0 mg/kg/injection, schedule: Q01DX009 (ip), vehicle: distilled water + Tween-80). Also, the T/C reads like this: (dose: 50.0 mg/kg/injection, schedule: Q01DX009 (ip), vehicle: distilled water + Tween-80) 106 % of control and 112 % of control; (dose: 50.0 mg/kg/injection, schedule: Q01DX009 (ip), vehicle: other) 93 % of control; (dose: 100.0 mg/kg/injection, schedule: Q01DX009 (ip), vehicle: distilled water + Tween-80) 108 % of control; under setting [2], 155 % of control.

For the molecule `CCCCCCCCCCCCCCC(O)c1cccc(OC)c1` (configuration not stated), the T/C by setting is: (dose: 7.5 mg/kg/injection, schedule: Q01DX009 (ip), vehicle: saline with Tween-80) 109 % of control; (dose: 15.0 mg/kg/injection, schedule: Q01DX009 (ip), vehicle: saline with Tween-80) 113 % of control; (dose: 30.0 mg/kg/injection, schedule: Q01DX009 (ip), vehicle: saline with Tween-80) 109 % of control.

For `CCN(C/C=C/CN(CC)C(=S)Nc1ccccc1)C(=S)Nc1ccccc1`, the T/C was 106 % of control (dose: 50.0 mg/kg/injection, schedule: Q01DX009 (ip), vehicle: saline); 108 % of control under setting [3]; 106 % of control under setting [4].

Consider `CCCC1CC[N-]CC1.CCCC1CC[N-]CC1.[Br][Pt+2]([Br])([Br])[Br]`, for which the T/C is, setting by setting: (dose: 1.56 mg/kg/injection, schedule: Q01DX009 (ip), vehicle: saline with Tween-80) 94 % of control; (dose: 3.13 mg/kg/injection, schedule: Q01DX009 (ip), vehicle: saline with Tween-80) 87 % of control; (dose: 6.25 mg/kg/injection, schedule: Q01DX009 (ip), vehicle: saline with Tween-80) 95 % of control; under setting [5], 98 % of control; under setting [6], 123 % of control.

For the molecule `O=c1c(Cl)c2oc3ccc([N+](=O)[O-])cc3nc-2c(Cl)c1Cl`, the T/C under setting [7] was 109 % of control and the T/C (dose: 100.0 mg/kg/injection, schedule: Q01DX009 (ip), vehicle: saline with Tween-80) is 107 % of control.

As to `CC(=O)NCSCC(N)C(=O)O` (configuration not stated), the T/C reads like this: under setting [3], 104 % of control; (dose: 100.0 mg/kg/injection, schedule: Q04DX003 (ip), vehicle: saline) 95 % of control; under setting [4], 118 % of control; (dose: 200.0 mg/kg/injection, schedule: Q04DX003 (ip), vehicle: saline) 113 % of control; (dose: 400.0 mg/kg/injection, schedule: Q01DX009 (ip), vehicle: saline) 90 % of control; (dose: 400.0 mg/kg/injection, schedule: Q04DX003 (ip), vehicle: saline) 90 % of control.

Take `O=C(O)c1c[nH]c2c(ccc3[nH]cc(C(=O)O)c(=O)c32)c1=O`: the T/C by setting is: under setting [8], 105 % of control; under setting [9], 102 % of control; under setting [10], 92 % of control.

As to `O=[N+]([O-])c1cccnc1-n1nnc2c([N+](=O)[O-])cccc21`, the T/C under setting [11] is 99 % of control; the T/C (dose: 120.0 mg/kg/injection, schedule: Q01DX005 (ip), vehicle: saline with Tween-80) is 100 % of control; the T/C (dose: 240.0 mg/kg/injection, schedule: Q01DX005 (ip), vehicle: saline with Tween-80) is 102 % of control.

For `Cc1nn(C(=O)c2ccncc2)c(C)c1N=Nc1ccc(S(=O)(=O)N=C(N)N)cc1`, the T/C runs as follows: (dose: 50.0 mg/kg/injection, schedule: Q01DX009 (ip), vehicle: Klucel (hydroxypropylcellulose) (HPC)) 97 % of control; (dose: 100.0 mg/kg/injection, schedule: Q01DX009 (ip), vehicle: Klucel (hydroxypropylcellulose) (HPC)) 95 % of control; (dose: 200.0 mg/kg/injection, schedule: Q01DX009 (ip), vehicle: Klucel (hydroxypropylcellulose) (HPC)) 100 % of control.

With `Cc1nnc2nc(N)[nH]n2c1=O`, the T/C (dose: 25.0 mg/kg/injection, schedule: Q01DX005 (ip), vehicle: water) is 95 % of control; the T/C (dose: 50.0 mg/kg/injection, schedule: Q01DX005 (ip), vehicle: water) was 98 % of control; the T/C (dose: 100.0 mg/kg/injection, schedule: Q01DX005 (ip), vehicle: water) was 93 % of control.

For the molecule `CCN(CC)C(=S)N1C(=O)C2C3CCC(O3)C2C1=O` (configuration not stated), the T/C reads like this: (dose: 15.0 mg/kg/injection, schedule: Q01DX005 (ip), vehicle: saline with Tween-80) 101 % of control; (dose: 30.0 mg/kg/injection, schedule: Q01DX005 (ip), vehicle: saline with Tween-80) 104 % of control; under setting [11], 110 % of control.

Take `O=C1NC(=O)C(=Cc2c(Cl)cccc2Cl)C(=O)N1`: the T/C is, setting by setting: under setting [5], 116 % of control; under setting [6], 122 % of control; under setting [7], 122 % of control.

For `CCOc1nnc(-c2ccc(OC)c(OC)c2)o1`, the T/C reads like this: under setting [1], 90 % of control; under setting [2], 106 % of control; (dose: 200.0 mg/kg/injection, schedule: Q01DX009 (ip), vehicle: other) 90 % of control.

As to `CC(=O)CC(=O)c1c(-c2ccccc2)[nH]c2ccccc12`, the T/C was 100 % of control (dose: 25.0 mg/kg/injection, schedule: Q04DX003 (ip), vehicle: saline + alcohol); 102 % of control (dose: 50.0 mg/kg/injection, schedule: Q04DX003 (ip), vehicle: saline + alcohol); 107 % of control and 96 % of control (dose: 100.0 mg/kg/injection, schedule: Q04DX003 (ip), vehicle: saline + alcohol).

In the case of `C[C@@H]1[C@H](c2ccccc2)OCN1C`, the T/C (dose: 12.5 mg/kg/injection, schedule: Q01DX005 (ip), vehicle: saline) was 101 % of control and 93 % of control; the T/C (dose: 25.0 mg/kg/injection, schedule: Q01DX005 (ip), vehicle: saline) is 101 % of control; the T/C (dose: 30.0 mg/kg/injection, schedule: Q01DX005 (ip), vehicle: saline) is 111 % of control; the T/C (dose: 50.0 mg/kg/injection, schedule: Q01DX005 (ip), vehicle: saline) was 109 % of control and 124 % of control; the T/C (dose: 60.0 mg/kg/injection, schedule: Q01DX005 (ip), vehicle: saline) was 118 % of control; the T/C (dose: 100.0 mg/kg/injection, schedule: Q01DX005 (ip), vehicle: saline) was 111 % of control and 120 % of control. In addition, the T/C (dose: 200.0 mg/kg/injection, schedule: Q01DX005 (ip), vehicle: saline) is 109 % of control.

Turning to `O=C(O)c1cnc2cc3c(cc2c1Nc1ccccc1)OCO3`, the T/C under setting [8] is 99 % of control, the T/C under setting [9] is 102 % of control and the T/C under setting [10] is 90 % of control.

Consider `C=C1C(C2=[N+]([O-])CCN2O)OC2OC(C)(C)OC12` (configuration not stated), for which the T/C was 93 % of control under setting [8], 101 % of control under setting [9] and 101 % of control under setting [10].

Regarding `COc1ccc(CC2(OC(C)=O)N=NC(C)(C)O2)cc1` (configuration not stated), the T/C (dose: 50.0 mg/kg/injection, schedule: Q01DX005 (ip), vehicle: Klucel (hydroxypropylcellulose) (HPC)) was 103 % of control; the T/C (dose: 100.0 mg/kg/injection, schedule: Q01DX005 (ip), vehicle: Klucel (hydroxypropylcellulose) (HPC)) is 98 % of control; the T/C (dose: 200.0 mg/kg/injection, schedule: Q01DX005 (ip), vehicle: Klucel (hydroxypropylcellulose) (HPC)) is 98 % of control.

For the molecule `CCOC(=O)C(Cc1ccc(N(CCCl)CCCl)cc1)NC(=O)C(NC(C)=O)C(C)C` (configuration not stated), the T/C is 123 % of control (dose: 5.0 mg/kg/injection, schedule: Q04DX003 (ip), vehicle: water); 160 % of control (dose: 20.0 mg/kg/injection, schedule: Q04DX003 (ip), vehicle: water); 241 % of control (dose: 40.0 mg/kg/injection, schedule: Q04DX003 (ip), vehicle: water).
